The values that follow come from patent US11110195B2, “Esculentin 1a derivatives and uses thereof” (University of Houston System, priority 2013, dated 2021).

Read-outs that look alike come from different tables or passages of the source. Residues, ends and D or L forms follow the SMILES beside them.

Test [1] relates to Pseudomonas aeruginosa ATCC 19660. The test is described as follows: Viable bacterial count in infected corneas. The class given is in vivo, C57BL/6 mice. The note with it: for difference in viable bacterial counts vs PBS control: pre-treated or treated groups; for viable bacterial count in cornea: pre-treated. From the text:
Corneas were harvested 1, 3 and 5 days after infection and the number of surviving bacteria determined. […] P1=post infection; Pre-trt=pretreatment with Esc-1a(1-21)NH2. *Indicates significant difference, p<0.05, among PBS control and peptide treated groups.
(§1) To determine a clinical score, neutrophil infiltration by myeloperoxidase assay (MPO assay) and viable bacterial cell counts in infected and control corneas of C57BL/6 mice with Pseudomonas aeruginosa ATCC 19660 keratitis following pre-treatment and post-infection treatment with Esc-1a(1-21)NH2 up to 5 days post-infection (PI) the following experiment was performed. In these experiments pre-treatment refers to a group of animals where treatment was initiated 24 hrs before infection then continued after infection.
To quantitate viable bacteria, a 100 μl aliquot from the corneal homogenates was serially diluted 1:10 in sterile PBS. Duplicate aliquots (20 μl) of each dilution, including the original homogenate, were plated onto nutrient agar. Plates were incubated for 14-16 h at 37° C.
The harvested corneas were homogenized, plated on growth media and the bacterial colonies recovered counted 14-18 hours post plating. Data plotted (FIG. 7) show the viable bacterial counts obtained from an average of 3 independent experiments.

The test system of test [2] is P. aeruginosa ATCC 27853 biofilm. The note with it: 2 hours treatment. On the procedure: (§2) Data points are the mean±SEM of three independent experiments. The levels of statistically significant differences between the two peptides are indicated as follows *P<0.05, **P<0.01, ***P<0.001
(§3) The reference strain and the clinical isolates were grown at 37° C. in Luria-Bertani broth (LB) to mid-log phase (optical density of 0.8 at 590 nm). With the help of tweezers, silicone hydrogel narafilcon A soft CL (1-Day ACUVUE TruEye) were removed from the manufacturer's containers, and washed thrice in phosphate buffered saline (PBS). The lenses were then immersed into wells of a 24-multiwell plate, each well containing 1 mL of bacterial inoculum in 1/10 LB at a concentration of 5×10^4 colony-forming units (CFU)/mL. Noteworthy, the number of bacteria isolated from CL storage cases has been reported to range from 1 to 6×10^4 CFU/case (2, 10). Therefore, in order to reproduce a more realistic level of bacteria to which CLs can be exposed, an inoculum size of 5×10^4 CFU/mL was used for biofilm formation.
(§4) The plate was then incubated in a humidified incubator at 37° C. at 125 rpm to allow biofilm formation on the surface of both lens sides. After 20 hours of incubation, each lens was washed thrice with PBS to remove any non-adherent planktonic cells.
(§5) The lenses were then transferred into wells of a new 24-multiwell plate, each well containing serial dilutions of Esc-1a(1-21)NH2 and Esc-1a(1-21)-1cNH2 in PBS. For […] controls, the lenses were immersed in sterile PBS. The new plate was then incubated at 37° C. for 2 hours with gentle shaking (125 rpm). After peptide treatment, each lens was washed thrice in PBS and transferred into wells of another 24-multiwell plate, each well containing 350 μL of 0.5 mg/mL of 3-(4,5-dimethylthiazol-2-yl)-2,5-diphenyltetrazolium bromide (MTT, from Sigma Aldrich, Milan, Italy) in Hank's solution (136 mM NaCl; 0.34 mM Na2HPO4; 0.44 mMKH2PO4; 5.4 mM KCl; 4.1 mM NaHCO3 pH 7.2, supplemented with 5.5 mM D-glucose) as previously reported (8). The killing of biofilms was determined as a function of the inhibition of MTT reduction to insoluble formazan crystals by bacterial reductases. The plate was incubated again for 2 hours (125 rpm) at 37° C. Formazan crystals were solubilized by the addition of acidified isopropanol. During overnight incubation at room temperature the resulting purple color was absorbed by the lens. Afterward, each lens was soaked in absolute ethanol (500 μL in each well) to decolor it. Aliquots of 100 μL were finally transferred to the wells of a 96-multiwell plate and absorbance was measured at 590 nm using a microplate reader (Infine M 200, Tecan). Untreated bacterial cells in PBS were the control. Percentage of killing was calculated according to the formula: [1−(Abs of treated samples−Abs of blank/Abs of control samples-Abs of blank)][…], where the blank was the solvent PBS.

The subject of a further test is P. aeruginosa R1 biofilm. The note with it: 4 μM, 2 hours treatment. On the procedure:
as §2, §3, §4, §5

The subject of test [3] is Pseudomonas aeruginosa ATCC 19660 induced keratitis. The test is described as follows: Clinical grading of Pseudomonas keratitis in mice. Type of test: in vivo, C57BL/6 mice. The note with it: scale 0-4. The protocol:
C57BL/6 mice were infected in one eye with P. aeruginosa ATCC 19660 and treated with 40 μM Esc-1a(1-21)NH2 or vehicle control (PBS). In some animals (Pre-trt group) treatment with Esc-1a(1-21)NH2 was initiated 24 hrs prior to infection. […] There was no significant difference between the Esc-1a(1-21)NH2 pretreatment group and when treatment was begun after infection.
as §1
Images of the uninfected control and infected eye were taken on days 1, 3 and 5 PI using a camera equipped slit lamp biomicroscope. Clinical grading of infection on days 1, 3 and 5 PI was by visualizing through a slit lamp and using an established grading scale (Table 2). A myeloperoxidase assay was used to quantitate the polymorphonuclear cell numbers in the infected and control corneas (data presented in FIG. 6). Viable counts for bacteria were recovered from corneas at day 1, 3 and 5 PI (FIG. 7).
1. IP injections of ketamine and xylazine mixture were given (final dose 100 and 10 mg/kg respectively) to anesthetize the mice.
2. Pre-treatment group-5 μl of peptide (40 μM) was instilled topically onto intact corneas—3 times in 24 h.
3. Day 0—Day of infection: • a. 3×1 mm parallel scratches were made at the center of the right cornea of the mice using a 271/2 gauge needle and 5 μl of P. aeruginosa ATCC19660 bacterial solution (1×10^6 CFU) was pipetted on the wounded cornea. • b. Topically pipetted 5 μl of 40 μM Esc-1a(1-21)NH2 or vehicle (PBS) on the cornea 2-times on Day 0 starting 5 hours after bacterial infection.
4. Day 1 post-infection: • a. Captured images and graded the infection using a slit lamp biomicroscope. • b. Harvested corneas from 2 mice per group, pooled the corneas and processed them to perform the MPO assay. • c. Instilled peptide or vehicle three times/24 hrs (6.30 am, 1.30 pm, 8.30 pm).
5. Repeated the peptide or vehicle treatment 3 times a day for the next 4 days.
6. In addition, captured images, graded the infection and repeated the MPO assay on Day 3 and 5 post-infection.
The mean clinical scores for the Esc-1a(1-21)NH2 treated and PBS vehicle control group at day 1, 3 and 5 PI obtained from 4 separate experiments where the size of inoculum was 1*10^6 CFU/5 μl were plotted (FIG. 5).

Take `CC[C@H](C)[C@H](NC(=O)CN)C(=O)N[C@@H](Cc1ccccc1)C(=O)N[C@@H](CO)C(=O)N[C@@H](CCCCN)C(=O)N[C@@H](CC(C)C)C(=O)N[C@@H](C)C(=O)NCC(=O)N[C@@H](CCCCN)C(=O)N[C@@H](CCCCN)C(=O)N[C@H](C(=O)N[C@@H](CCCCN)C(=O)N[C@@H](CC(N)=O)C(=O)N[C@@H](CC(C)C)C(=O)N[C@@H](CC(C)C)C(=O)N[C@H](C(=O)N[C@@H](CO)C(=O)NCC(=O)N[C@@H](CC(C)C)C(=O)N[C@@H](CCCCN)C(=O)NCC(N)=O)[C@@H](C)CC)[C@@H](C)CC` [Esc-1a(1-21)NH2] (H-GIFSKLAGKKIKNLLISGLKG-NH2; N-terminus assumed): the “difference in viable bacterial counts vs PBS control” value in test [1] (day 5 PI) was 4 log10; in test [1] (days 1 and 3 PI), 2-3 log10 CFU. For the same compound, the results for the “viable bacterial count in cornea” value in test [1] (day 1 PI), in test [1] (day 3 PI) and in test [1] (day 5 PI) were 3.35 log10 CFU, 3.7 log10 CFU and 3.47 log10 CFU, respectively. The values for the biofilm killing result (in test [2] (4 μM); in test [2] (32 μM); in the test on P. aeruginosa R1 biofilm) were “activity was lost”, “more than 50%” and 0%, respectively. Moreover, the mean clinical score stood at 1.37±0.07 in test [3] (pre-treated (40 μM topical from 24 h before infection), day 1 PI); 2.29±0.17 in test [3] (pre-treated, day 3 PI); 2.86±0.20 in test [3] (pre-treated, day 5 PI); 1.38±0.22 in test [3] (treated after infection (40 μM topical), day 1 PI); 2.36±0.24 in test [3] (treated after infection, day 3 PI); 2.89±0.26 in test [3] (treated after infection, day 5 PI).
